Data taken from US12391671B2, “Allosteric EGFR inhibitors and methods of use thereof” (Dana-Farber Cancer Institute, Inc., priority 2019, dated 2025).
Structures can show the parent of a compound that is named as a salt. Where two headings read alike, the source gives them in different places.

Experiments:
EGFR L858R/T790M = EGFR L858R/T790M (Homo sapiens (Human), UniProt P00533, L858R/T790M); assay: HTRF-based EGFR biochemical assay (L858R/T790M); conditions: 100 μM ATP, enzyme 0.02 nM
Description: (§1) Example 25: HTRF-Based EGFR Biochemical Assays
(§2) EGFR biochemical activity measurements were carried out using the homogeneous time-resolved fluorescence (HTRF) assay (Cisbio), inhibitors and DMSO normalizations were first dispensed to empty black low-volume 384-well plates (Corning) with 0300 digital liquid dispenser (HP). All reactions were carried out at room temperature and solutions were added to plates with a Multidrop Combi Reagent Dispenser (ThermoFisher). The reaction mixture (10 μL final volume) contained 1 μM tyrosine kinase peptide-biotin substrate and mutant EGFR in a reaction buffer (50 mM HEPES pH 7.0, 5 mM MgCl2, 1 mM MnCl2, 0.01% BSA, 2 mM TCEP, 0.1 mM NaVO4). Enzyme concentrations were adjusted to accommodate varying kinase activities (L858R 0.1 nM, L858R/T790M 0.02 nM). Enzyme reaction solution (2× concentrations, 5 μL) was added to 384-well plates containing compounds and incubated for 30 mins. Enzyme reactions were initiated with the addition of 5 μL of ATP to a final concentration of 100 μM and reacted for 20 mins. Reactions were quenched with the addition of 10 μL of phospho-tyrosine antibody-Europium(III) cryptate (1-to-180 volume ratio) and Streptavidin-XL665 (46.7 nM) in EDTA-containing detection buffer, then incubated at room temperature for 1 hour, and read with a PHERAstar plate reader (excitation=337 nm, emission=620 nm and 665 nm).

EGFR L858R = EGFR L858R (Homo sapiens (Human), UniProt P00533, L858R); assay: HTRF-based EGFR biochemical assay (L858R); conditions: 100 μM ATP, enzyme 0.1 nM
Description: as §1, §2

[1] = test system: EGFR mutant L858R/T790M Ba/F3 cells; assay: Ba/F3 cell proliferation model (Cell Titer Glo), EGFR L858R/T790M; type: cell-based, murine; conditions: 72 hours
Excerpt: Example 26: Ba/F3 Cell Proliferation Models
The EGFR mutant L858R and L858R/T790M Ba/F3 cells have been previously described (Zhou, W., et al. Nature 462, 2009, 1070-1074). All cell lines were maintained in RPM 1640 (Cellgro; Mediatech Inc., Herndon. CA) supplemented with 10% FBS, 100 units/mL penicillin, 100 units/mL streptomycin. The EGFR I941R mutation was introduced via site directed mutagenesis using the Quick Change Site-Directed Mutagenesis kit (Stratagene; La Jolla, CA) according to the manufacturer's instructions. All constructs were confirmed by DNA sequencing. The constructs were shuttled into the retroviral vector JP1540 using the Cre-recombination system (Agilent Technologies, Santa Clara, CA). Ba/F3 cells were then infected with retrovirus per standard protocols, as described previously (Zhou, et al, Nature 2009). Stable clones were obtained by selection in puromycin (2 μg/ml).
Growth and inhibition of growth was assessed by the Cell Titer Glo® assay (Promega, Madison, WI) and was performed according to the manufacturer's instructions. The Cell Titer Glo® assay is a luminescence-based method used to determine the number of viable cells based on quantitation of the ATP present, which is directly proportional to the amount of metabolically active cells present. Ba/F3 cells of different EGFR genotypes were exposed to compounds as a single agent or in combination with 1 μg/mL cetuximab for 72 hours and the number of cells used per experiment was determined empirically as has been previously established (Zhou, et al., Nature 2009). All experimental points were set up in triplicates in 384-well plates and all experiments were repeated at least three times. […] The curves were fitted using a non-linear regression model with a sigmoidal dose response.

[2] = Mus musculus, BaF3, single agent, read-out: Cell IC50 BaF3 EGFR L858R/T790M
[3] = in combination with 1 μg/mL cetuximab, read-out: Cell IC50 BaF3 EGFR L858R/T790M (+cetux.)

Sequence of EGFR L858R/T790M (P00533 25-1210 T790M/L858R): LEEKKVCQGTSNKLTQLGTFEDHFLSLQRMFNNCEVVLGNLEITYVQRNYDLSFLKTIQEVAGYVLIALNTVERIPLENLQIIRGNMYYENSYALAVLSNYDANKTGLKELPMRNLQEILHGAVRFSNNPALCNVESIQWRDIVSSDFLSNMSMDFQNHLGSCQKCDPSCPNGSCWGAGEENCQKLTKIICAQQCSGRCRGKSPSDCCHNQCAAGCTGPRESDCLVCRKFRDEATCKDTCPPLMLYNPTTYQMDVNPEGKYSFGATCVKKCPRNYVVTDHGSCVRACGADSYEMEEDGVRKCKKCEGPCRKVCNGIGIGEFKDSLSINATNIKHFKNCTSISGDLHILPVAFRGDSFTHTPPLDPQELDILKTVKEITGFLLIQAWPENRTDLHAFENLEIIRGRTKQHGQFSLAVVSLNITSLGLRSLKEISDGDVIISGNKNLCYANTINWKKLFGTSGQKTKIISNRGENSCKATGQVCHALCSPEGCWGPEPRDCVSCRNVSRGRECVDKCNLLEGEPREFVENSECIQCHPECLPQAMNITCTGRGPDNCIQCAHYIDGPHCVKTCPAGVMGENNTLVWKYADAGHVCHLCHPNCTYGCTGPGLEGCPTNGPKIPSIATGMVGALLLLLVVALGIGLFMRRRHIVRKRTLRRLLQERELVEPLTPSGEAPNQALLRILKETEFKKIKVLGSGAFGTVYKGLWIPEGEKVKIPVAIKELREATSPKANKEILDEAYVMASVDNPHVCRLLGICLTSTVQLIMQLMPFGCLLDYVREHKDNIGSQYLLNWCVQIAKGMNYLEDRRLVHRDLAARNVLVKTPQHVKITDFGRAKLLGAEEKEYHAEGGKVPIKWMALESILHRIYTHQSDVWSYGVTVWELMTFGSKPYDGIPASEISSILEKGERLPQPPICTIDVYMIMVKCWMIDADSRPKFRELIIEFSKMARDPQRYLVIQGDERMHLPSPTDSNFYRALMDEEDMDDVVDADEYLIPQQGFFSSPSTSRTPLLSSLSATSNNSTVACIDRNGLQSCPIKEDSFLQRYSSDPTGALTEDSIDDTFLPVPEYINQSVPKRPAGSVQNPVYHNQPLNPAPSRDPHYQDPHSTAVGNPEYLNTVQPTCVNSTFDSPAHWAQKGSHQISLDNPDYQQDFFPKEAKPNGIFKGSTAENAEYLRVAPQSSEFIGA
Sequence of EGFR L858R (P00533 25-1210 L858R): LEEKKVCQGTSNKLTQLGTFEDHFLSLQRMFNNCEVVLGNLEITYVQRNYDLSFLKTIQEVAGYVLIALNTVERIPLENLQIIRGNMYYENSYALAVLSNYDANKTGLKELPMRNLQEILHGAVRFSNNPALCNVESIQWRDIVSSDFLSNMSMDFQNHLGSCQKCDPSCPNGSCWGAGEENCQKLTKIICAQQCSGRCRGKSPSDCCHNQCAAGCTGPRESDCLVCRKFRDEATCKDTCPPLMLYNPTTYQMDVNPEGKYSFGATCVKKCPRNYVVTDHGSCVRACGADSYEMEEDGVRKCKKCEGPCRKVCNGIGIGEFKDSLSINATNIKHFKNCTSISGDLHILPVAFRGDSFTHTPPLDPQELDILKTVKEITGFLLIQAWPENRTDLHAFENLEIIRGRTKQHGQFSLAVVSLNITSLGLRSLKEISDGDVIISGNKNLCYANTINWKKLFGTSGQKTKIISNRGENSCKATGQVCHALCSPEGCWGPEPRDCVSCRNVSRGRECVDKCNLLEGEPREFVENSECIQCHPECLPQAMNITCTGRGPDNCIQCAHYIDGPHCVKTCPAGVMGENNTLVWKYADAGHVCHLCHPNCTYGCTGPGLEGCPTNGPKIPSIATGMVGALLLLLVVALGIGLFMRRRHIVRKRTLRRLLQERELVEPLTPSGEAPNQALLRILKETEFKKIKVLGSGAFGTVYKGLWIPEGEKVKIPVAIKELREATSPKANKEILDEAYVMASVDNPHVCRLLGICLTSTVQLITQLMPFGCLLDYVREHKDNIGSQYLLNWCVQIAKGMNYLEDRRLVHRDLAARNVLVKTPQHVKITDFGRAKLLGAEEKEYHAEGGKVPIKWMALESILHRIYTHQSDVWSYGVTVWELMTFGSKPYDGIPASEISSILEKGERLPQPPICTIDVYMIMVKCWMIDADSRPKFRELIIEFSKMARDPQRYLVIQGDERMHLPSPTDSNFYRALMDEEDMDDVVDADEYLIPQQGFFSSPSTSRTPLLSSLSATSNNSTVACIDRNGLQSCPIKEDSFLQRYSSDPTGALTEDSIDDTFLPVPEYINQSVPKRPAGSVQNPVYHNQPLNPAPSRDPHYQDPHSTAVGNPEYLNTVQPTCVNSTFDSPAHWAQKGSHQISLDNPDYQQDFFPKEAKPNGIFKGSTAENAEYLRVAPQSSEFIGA

IC50 (EGFR L858R/T790M) | IC50 (EGFR L858R) | IC50 [1, 2] | IC50 [1, 3] | IC50 (EGFR L858R/T790M; dihydrochloride) | IC50 (EGFR L858R; dihydrochloride) | Compound
2 nM | 6 nM | 1500 nM | 50 nM | – | – | CN1CCC(c2ccc(-c3ccc4c(c3)C(=O)N(C(c3nc5ccccc5[nH]3)c3cc(Cl)ccc3O)C4)cc2)CC1 (stereo not shown) [Compound 044, 2-[1H-benzimidazol-2-yl-(5-chloro-2-hydroxy-phenyl)-methyl]-6-[4-(1-methyl-4-piperidyl)phenyl]isoindolin-1-one; hydrochloride]
13 nM | > 100 nM | 790 nM | 10 nM | – | – | O=C1c2cc(-c3ccc(N4CCOCC4)cc3)ccc2CN1C(c1nc2ccccc2[nH]1)c1cc(F)ccc1O (stereo not shown) [Compound 059, 2-(1H-benzimidazol-2-yl-(5-fluoro-2-hydroxy-phenyl)-methyl]-6-(4-morpholinopheny)-isoindolin-1-one; hydrochloride]
0.8 nM | 6 nM | 210 nM | – | – | – | CN1CCC(c2ccc(-c3ccc4c(c3F)C(=O)N(C(c3nc5c(F)cccc5[nH]3)c3cc(F)ccc3O)C4)cc2F)CC1 (stereo not shown) [Compound 081, 7-fluoro-2-[(4-fluoro-1H-benzimidazol-2-yl)-(5-fluoro-2-hydroxy-phenyl)methyl]-6-[3-fluoro-4-(1-methyl-4-piperidyl)phenyl]isoindolin-1-one; dihydrochloride]
0.5 nM | 2.9 nM | 280 nM | 14 nM | – | – | [2H]C1([2H])c2ccc(-c3ccc(C4CCN(C)CC4)cc3)cc2C(=O)N1C([2H])(c1nc2ccccc2[nH]1)c1cc(F)ccc1O (stereo not shown) [Compound 039, 2-((1H-Benzo[d]imidazol-2-yl)(5-fluoro-2-hydroxyphenyl)methyl-d)-6-(4-(1-methylpiperidin-4-yl)phenyl)isoindolin-1-one-3,3-d2]
0.7 nM | 3 nM | 650 nM | 20 nM | – | – | O=C1c2cc(-c3ccc(C4CCNCC4)cc3)ccc2CN1C(c1nc2ccccc2[nH]1)c1cc(F)ccc1O (stereo not shown) [Compound 062, 2-[1H-benzimidazol-2-yl-(5-fluoro-2-hydroxy-phenyl)-methyl]-6-[4-(4-piperidyl)-phenyl]isoindolin-1-one; hydrochloride]
4 nM | 17 nM | 4450 nM | 140 nM | – | – | CN1CCC(c2ccc(-c3ccc4ncn(C(c5ccccc5)c5nc6ccccc6[nH]5)c(=O)c4c3)cc2)CC1 (stereo not shown) [Compound 002, 3-[1H-Benzimidazol-2-yl(phenyl)methyl]-6-[4-(1-methyl-4-piperidyl)phenyl]quinazolin-4-one]
4 nM | 14 nM | – | – | – | – | [2H]C(c1nc2ccccc2[nH]1)(c1cc(F)ccc1O)n1ccc2cc(-c3ccc(C4CCN(C)CC4)cc3)cc(F)c2c1=O (stereo not shown) [Compound 113, 2-[1H-Benzimidazol-2-yl-deuterio-(5-fluoro-2-hydroxy-phenyl)methyl]-8-fluoro-6-[4-(1-methyl-4-piperidyl)phenyl]isoquinolin-1-one]
17 nM | 71 nM | – | – | – | – | CN1CCC(c2ccc(-c3ccc4c(n3)C(=O)N([C@H](c3nc5ccccc5[nH]3)c3cc(F)ccc3O)C4)cc2)CC1 (single isomer, unassigned) [Compound 107]
0.9 nM | 2 nM | – | – | – | – | CN1CCC(c2ccc(-c3ccc4c(=O)n([C@@H](c5nc6ccccc6[nH]5)c5cc(F)ccc5O)ccc4c3)cc2)CC1 (single isomer, unassigned) [Compound 114]

Further lines, the molecule ahead of its results:

Compound | IC50 (EGFR L858R/T790M) | IC50 (EGFR L858R) | IC50 [1, 2] | IC50 [1, 3] | IC50 (EGFR L858R/T790M; dihydrochloride) | IC50 (EGFR L858R; dihydrochloride)
CN1CCC(c2ccc(-c3ccc4c(n3)C(=O)N(C(c3nc5ccccc5[nH]3)c3cc(F)ccc3O)C4)cc2)CC1 (stereo not shown) [Compound 028, 6-[1H-Benzimidazol-2-yl-(5-fluoro-2-hydroxy-phenyl)methyl]-2-[4-(1-methyl-4-piperidyl)phenyl]-5H-pyrrolo[3,4-b]pyridin-7-one] | 0.3 nM | 2 nM | 1360 nM | 30 nM | – | –
[2H]C(c1nc2ccccc2[nH]1)(c1cc(F)ccc1O)N1Cc2ccc(-c3ccc(C4CCN(C)CC4)cc3)cc2C1=O (stereo not shown) [Compound 036, 2-((1H-benzo[d]imidazol-2-yl)(5-fluoro-2-hydroxyphenyl)methyl-d)-6-(4-(1-methylpiperidin-4-yl)phenyl)isoindolin-1-one] | 0.7 nM | 2.6 nM | 170 nM | 7 nM | – | –
CN1CCC(c2ccc(-c3ccc4ncn(C(c5nc6ccccc6[nH]5)c5cc(F)ccc5O)c(=O)c4c3)cc2F)CC1 (stereo not shown) [Compound 001, 3-[1H-Benzimidazol-2-yl-(5-fluoro-2-hydroxy-phenyl)methyl]-6-[3-fluoro-4-(1-methyl-4-piperidyl)phenyl]quinazolin-4-one; hydrochloride] | 0.4 nM | 1 nM | 320 nM | 9 nM | – | –
CN1CCC(c2ccc(-c3ccc4c(c3)C(=O)N(C(c3nc5ccccc5[nH]3)c3cc(F)ccc3O)C4)cc2F)CC1 (stereo not shown) [Compound 017, 2-[1H-Benzimidazol-2-yl-(5-fluoro-2-hydroxy-phenyl)methyl]-6-[3-fluoro-4-(1-methyl-4-piperidyl)phenyl]isoindolin-1-one; hydrochloride] | 0.4 nM | 1 nM | 260 nM | 6 nM | – | –
Cc1c(-c2ccc(C3CCN(C)CC3)cc2)ccc2ncn(C(c3nc4ccccc4[nH]3)c3cc(F)ccc3O)c(=O)c12 (stereo not shown) [Compound 055, 3-[1H-benzimidazol-2-yl-(5-fluoro-2-hydroxy-phenyl)-methyl]-5-methyl-6-[4-(1-methyl-4-piperidyl)phenyl]-quinazolin-4-one; dihydrochloride] | 1 nM | 2 nM | 100 nM | 10 nM | – | –
CN1CCC(c2ccc(-c3ccc4cn(C(c5nc6c(F)cccc6[nH]5)c5cc(F)ccc5O)nc4c3F)cc2)CC1 (stereo not shown) [Compound 101, 4-Fluoro-2-((4-fluoro-1H-benzo[d]-imidazol-2-yl)(7-fluoro-6-(4-(1-methylpiperidin-4-yl)phenyl)-2H-indazol-2-yl)methyl)phenol; trifluoroacetate] | 0.8 nM | 4 nM | – | – | – | –
CN1CCC(c2ccc(-c3ccc4c(n3)C(=O)N([C@@H](c3nc5ccccc5[nH]3)c3cc(F)ccc3O)C4)cc2)CC1 (single isomer, unassigned) [Compound 106] | 0.8 nM | 3 nM | – | – | – | –
[2H]C(c1nc2ccccc2[nH]1)(c1cc(F)ccc1O)n1ccc2cc(-c3ccc(C4CCN(C)CC4)cc3)ccc2c1=O (stereo not shown) [Compound 112, 2-[1H-Benzimidazol-2-yl-deuterio-(5-fluoro-2-hydroxy-phenyl)methyl]-6-[4-(1-methyl-4-piperidyl)phenyl]isoquinolin-1-one] | 2 nM | 3 nM | – | – | – | –
CN1CCC(c2ccc(-c3cc(F)c4c(=O)n([C@@H](c5nc6ccccc6[nH]5)c5cc(F)ccc5O)ccc4c3)cc2)CC1 (single isomer, unassigned) [Compound 116, dihydrochloride] | – | – | – | – | 0.2 nM | 0.8 nM
CN1CCC2(c3ccc(-c4ccc5c(=O)n(C(c6nc7ccccc7[nH]6)c6cc(F)ccc6O)ccc5c4)cc3)CC2C1 (stereo not shown) [Compound 108, 2-[1H-Benzimidazol-2-yl-(5-fluoro-2-hydroxy-phenyl)methyl]-6-[4-(3-methyl-3-azabicyclo[4.1.0]heptan-6-yl)phenyl]isoquinolin-1-one; dihydrochloride] | 2 nM | 5 nM | – | – | – | –
CN1CCC(c2ccc(-c3ccc4c(=O)n([C@H](c5nc6ccccc6[nH]5)c5cc(F)ccc5O)ccc4c3)cc2)CC1 (single isomer, unassigned) [Compound 068] | 166 nM | 756 nM | – | – | – | –
